Assay results reported in patent publication US20260355274A1 (Onkure, Inc., priority 2022, published 2026).
pIC50: −log10 of the molar value.

Legend:
[1] = test system: RAS mutated cell lines and RAS WT cell lines; test: 72-hour proliferation assay, RAS mutated versus RAS wild-type cell lines; format: cell-based; details: combined with binimetinib, physiologically relevant concentrations, Day 3 compared to Day 0
Text: . The RAS mutated cell lines and the RAS WT cell lines involved in this study represent conventional and well known cell lines for this purpose. See, e.g., FIG. 16.

[2] = test system: human uveal melanoma cell line 92-1; test: 72 hour proliferation assay (CellTiter-Glo), uveal melanoma 92-1; format: cell-based; details: combined with binimetinib, GNAQ/11 Q209L
Experimental: (§1) In particular, cells are grown in multi-well plates and incubated with the OKI-005 and binimetinib for 72 hours. The number of viable cells is determined by luminescence readout after the addition of CellTiter-Glo (CTG) dye.

[3] = test system: human uveal melanoma cell line MP46; test: 72 hour proliferation assay (CellTiter-Glo), uveal melanoma MP46; format: cell-based; details: combined with binimetinib, GNAQ/11 Q209L
Experimental: as §1

[4] = test system: MGMT-positive human tumor cell lines versus MGMT-negative human tumor cell lines; test: synergy in MGMT-positive versus MGMT-negative tumor cell lines; format: cell-based; details: combination with binimetinib compared to OKI-005 or binimetinib alone
[5] = test system: AGS human gastric adenocarcinoma hyperdiploid cell line; test: 72 hour proliferation assay (CellTiter-Glo), AGS, KRAS G12D; format: cell-based
Experimental: as §1
(§2) FIGS. 12A, 12B and 12C illustrate the results of studies of the combination of OKI-005 with each of binimetinib, GDC-0994 and sotorasib in the NCI-H358 (NSCLC KRAS^G12C) cell line. FIGS. 12D, 12E and 12F illustrate the results of studies of the combination of OKI-005 with each of binimetinib, GDC-0994 and MRTX1133 (a KRAS^G12D Inhibitor) in the AGS (Gastric KRAS^G12D) cell line. […] In particular, cells are grown in multi-well plates and incubated with the OKI-005 and binimetinib for 72 hours. The number of viable cells is determined by luminescence readout after the addition of CellTiter-Glo (CTG) dye.

[6] = metabolism to active compound; details: to OKI-006
Text: The following figures are illustrative of specific embodiments of the invention and are not intended to otherwise limit the scope of the invention as described herein. OKI-005 is an in vitro optimized tool compound. […] In the figures, “bini” is equivalent to binimetinib (a MEK 1/2 inhibitor) and “enco” is equivalent to encorafenib (a BRAF inhibitor).

[7] = test system: NCI-H358 non-small cell lung cancer cell line; test: 72 hour proliferation assay (CellTiter-Glo), NCI-H358, KRAS G12C; format: cell-based
Experimental: as §1, §2

[8] = test system: SKMEL2 melanoma cell line; test: 72 hour proliferation assay (CellTiter-Glo), SKMEL2 melanoma, NRAS mutated; format: cell-based; details: combined with binimetinib
Experimental: as §1
In particular, in FIGS. 9A and 9B, cells are grown in multi-well plates and incubated with the OKI-005 and binimetinib for 72 hours. The number of viable cells is determined by luminescence readout after the addition of CellTiter-Glo (CTG) dye. SEM is the standard error of the mean, […]

[9] = test system: NCI-H358 KRAS^G12C non-small cell lung cancer xenografts; test: NCI-H358 KRAS G12C NSCLC xenografts, regressions; format: in vivo, mouse; details: combined with sotorasib, 50-day period after dosing
Text: As used herein, “4on/3off” refers to a dosing schedule of 4 days on and 3 days off each week.

[10] = test system: HT29 BRAF^V600E colorectal (CRC) xenografts; test: HT29 BRAF V600E colorectal xenografts, regressions; format: in vivo, mouse; details: combined with binimetinib and encorafenib, following two weeks of dosing
[11] = test system: SKMEL2 xenograft; test: SKMEL2 NRAS mutated xenograft, tumor growth and regressions; format: in vivo, mouse; details: for tumor growth delay and regressions: single agent, SKMEL2 NRAS mutated xenograft
Text: (§3) As used herein, “Son/2off” refers to a dosing schedule of 5 days on and 2 days off each week. […] Glyceraldehyde 3-phosphate dehydrogenase (GAPDH) was used as a control.

[12] = test system: advanced cancer patients; test: maximally-tolerated dose in advanced cancer patients; format: in vivo, human
Text: It will be appreciated that appropriate dosages can vary from patient to patient. Determining the optimal dosage will generally involve the balancing of the level of therapeutic benefit against any risk or deleterious side effects of the treatments described herein. The selected dosage level will depend on a variety of factors including, but not limited to, the activity of the particular compound, the route of administration, the time of administration, the rate of excretion of the compound, the duration of the treatment, other drugs, compounds, or materials used in combination, and the age, sex, weight, condition, general health, and prior medical history of the patient. The amount(s) of the compound(s) administered and the route of administration will ultimately be at the discretion of a physician. […] On Schedule 2, the MTD was 200 mg daily on a continuous dosing regimen and on Schedule 3, the MTD was 300 mg for 5 days on and 2 days off each week.

[13] = test system: mouse xenograft models; details: with binimetinib
[14] = test system: patients with solid tumors; test: Phase 1 clinical trials in patients with solid tumors; format: in vivo, human; details: Phase 1, single agent, oral
[15] = test system: Ac-H3K9; test: Ac-H3K9 in SKMEL2 tumors (HDACi PD); format: in vivo; details: 2 hours post dose
Text: as §3

[16] = test system: RAS-pathway mutated models; test: preclinical activity in RAS-pathway mutated models; format: in vivo; details: in combination with binimetinib
Text: As an example of the frequency of mutations associated with various cancers, mutations in NRAS account for 20% of all melanomas and affect approximately 65,000 patients worldwide. Such melanomas have a tendency to be more aggressive than their wild-type counterparts and frequently have poor outcomes. Current therapies for NRAS-mutant melanoma remain limited, with little efficacy. No targeted therapies are currently available post PD1i.

[17] = mouse body weight change, HT29 xenograft study; format: in vivo; details: combined with binimetinib and encorafenib, up to 15 days after randomization
[18] = target: HDAC 9 (Homo sapiens, UniProt Q9UKV0); test: enzymatic inhibition of HDAC 9; format: biochemical
Text: (§4) The mammalian HDACs can be divided into four classes depending on their sequence homology, sub-cellular distribution and catalytic activity. Class I, Il and IV HDACs have a Zn^2+ cofactor in the catalytic site. Class III HDACs contain sirtuins 1-7 and are NAD^+-dependent. Class I (HDACs 1, 2, 3 and 8) share the same homology as Rpd3 and are preliminarily distributed in the nucleus of normal cells. Class II HDACs can be subdivided into class IIa HDACs and class Ilb HDACs. Class IIa enzymes (HDAC 4, 5, 7 and 9) shuttle between the nucleus and cytoplasm and are located in specific tissues such as the brain, heart, and muscle. Class IIb (HDACs 6 and 10) are chiefly located in the cytoplasm.

[19] = target: HDAC 5 (Homo sapiens, UniProt Q9UQL6); test: enzymatic inhibition of HDAC 5; format: biochemical
Text: as §4

[20] = target: HDAC 10 (Homo sapiens, UniProt Q969S8); test: enzymatic inhibition of HDAC 10; format: biochemical; details: HDAC 10, Class IIb
Text: as §4

[21] = target: HDAC 2 (Homo sapiens, UniProt Q92769); test: enzymatic inhibition of HDAC 2; format: biochemical
Text: as §4

[22] = target: HDAC 8 (Homo sapiens, UniProt Q9BY41); test: enzymatic inhibition of HDAC 8; format: biochemical
Text: as §4

[23] = target: HDAC 7 (Homo sapiens, UniProt Q8WUI4); test: enzymatic inhibition of HDAC 7; format: biochemical
Text: as §4

[24] = target: HDAC 4 (Homo sapiens, UniProt P56524); test: enzymatic inhibition of HDAC 4; format: biochemical
Text: as §4

[25] = target: HDAC 6 (Homo sapiens, UniProt Q9UBN7); test: enzymatic inhibition of HDAC 6; format: biochemical
Text: as §4

[26] = target: HDAC 11 (Homo sapiens, UniProt Q96DB2); test: enzymatic inhibition of HDAC 11; format: biochemical; details: HDAC 11, Class IV
Text: as §4

[27] = test system: pERK; test: pERK in SKMEL2 tumors (MEKi PD); format: in vivo; details: 2 hours post dose
Text: as §3

[28] = test system: KRAS^G12C colorectal cancer (CRC); details: single-agent RAS pathway inhibition; cited from earlier work
[29] = test system: KRAS^G12C pancreatic cancer; details: single-agent RAS pathway inhibition; cited from earlier work
[30] = test system: BRAF^V600E colorectal cancer (CRC); details: single-agent RAS pathway inhibition; cited from earlier work
[31] = test system: BRAF^V600E melanoma; details: single-agent RAS pathway inhibition; cited from earlier work
[32] = combined with binimetinib, 72 hours, KRAS

HDAC 4, sequence (P56524 whole entry): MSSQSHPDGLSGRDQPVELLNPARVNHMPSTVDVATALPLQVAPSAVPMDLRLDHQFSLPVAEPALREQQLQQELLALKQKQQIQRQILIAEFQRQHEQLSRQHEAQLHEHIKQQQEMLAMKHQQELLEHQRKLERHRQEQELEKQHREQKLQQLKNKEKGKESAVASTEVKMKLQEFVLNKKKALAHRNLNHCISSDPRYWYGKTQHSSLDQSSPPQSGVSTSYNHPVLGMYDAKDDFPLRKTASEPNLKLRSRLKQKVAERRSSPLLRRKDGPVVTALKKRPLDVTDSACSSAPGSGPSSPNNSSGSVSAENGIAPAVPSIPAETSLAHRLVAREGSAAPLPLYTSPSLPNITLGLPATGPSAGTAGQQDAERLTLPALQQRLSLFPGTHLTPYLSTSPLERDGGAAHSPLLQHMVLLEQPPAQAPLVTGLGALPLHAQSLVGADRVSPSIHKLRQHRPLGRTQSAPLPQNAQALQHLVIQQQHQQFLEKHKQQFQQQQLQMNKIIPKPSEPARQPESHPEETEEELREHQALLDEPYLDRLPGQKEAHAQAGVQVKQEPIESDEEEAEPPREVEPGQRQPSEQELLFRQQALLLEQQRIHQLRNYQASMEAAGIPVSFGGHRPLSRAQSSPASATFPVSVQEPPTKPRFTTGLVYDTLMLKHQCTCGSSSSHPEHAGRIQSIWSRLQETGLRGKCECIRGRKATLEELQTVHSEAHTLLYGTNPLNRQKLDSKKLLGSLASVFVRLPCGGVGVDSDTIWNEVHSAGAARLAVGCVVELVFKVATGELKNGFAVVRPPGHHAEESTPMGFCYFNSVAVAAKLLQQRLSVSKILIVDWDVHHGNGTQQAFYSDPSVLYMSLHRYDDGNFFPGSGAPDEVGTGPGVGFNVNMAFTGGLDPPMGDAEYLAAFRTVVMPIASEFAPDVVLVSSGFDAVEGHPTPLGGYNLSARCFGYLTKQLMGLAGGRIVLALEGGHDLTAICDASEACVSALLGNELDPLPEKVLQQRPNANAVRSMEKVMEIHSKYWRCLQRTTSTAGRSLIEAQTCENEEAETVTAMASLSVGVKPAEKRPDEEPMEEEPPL
HDAC 11, sequence (Q96DB2 whole entry): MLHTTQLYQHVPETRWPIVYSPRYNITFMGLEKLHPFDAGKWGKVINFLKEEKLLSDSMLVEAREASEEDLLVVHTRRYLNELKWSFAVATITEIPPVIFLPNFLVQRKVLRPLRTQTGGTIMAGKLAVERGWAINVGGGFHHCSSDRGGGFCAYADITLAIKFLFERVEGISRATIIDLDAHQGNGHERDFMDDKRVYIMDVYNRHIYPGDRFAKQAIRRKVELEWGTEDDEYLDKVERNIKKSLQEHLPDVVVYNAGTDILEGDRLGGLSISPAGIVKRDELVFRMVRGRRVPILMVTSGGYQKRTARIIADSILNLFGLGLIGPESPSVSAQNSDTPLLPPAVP
HDAC 9, sequence (Q9UKV0 whole entry): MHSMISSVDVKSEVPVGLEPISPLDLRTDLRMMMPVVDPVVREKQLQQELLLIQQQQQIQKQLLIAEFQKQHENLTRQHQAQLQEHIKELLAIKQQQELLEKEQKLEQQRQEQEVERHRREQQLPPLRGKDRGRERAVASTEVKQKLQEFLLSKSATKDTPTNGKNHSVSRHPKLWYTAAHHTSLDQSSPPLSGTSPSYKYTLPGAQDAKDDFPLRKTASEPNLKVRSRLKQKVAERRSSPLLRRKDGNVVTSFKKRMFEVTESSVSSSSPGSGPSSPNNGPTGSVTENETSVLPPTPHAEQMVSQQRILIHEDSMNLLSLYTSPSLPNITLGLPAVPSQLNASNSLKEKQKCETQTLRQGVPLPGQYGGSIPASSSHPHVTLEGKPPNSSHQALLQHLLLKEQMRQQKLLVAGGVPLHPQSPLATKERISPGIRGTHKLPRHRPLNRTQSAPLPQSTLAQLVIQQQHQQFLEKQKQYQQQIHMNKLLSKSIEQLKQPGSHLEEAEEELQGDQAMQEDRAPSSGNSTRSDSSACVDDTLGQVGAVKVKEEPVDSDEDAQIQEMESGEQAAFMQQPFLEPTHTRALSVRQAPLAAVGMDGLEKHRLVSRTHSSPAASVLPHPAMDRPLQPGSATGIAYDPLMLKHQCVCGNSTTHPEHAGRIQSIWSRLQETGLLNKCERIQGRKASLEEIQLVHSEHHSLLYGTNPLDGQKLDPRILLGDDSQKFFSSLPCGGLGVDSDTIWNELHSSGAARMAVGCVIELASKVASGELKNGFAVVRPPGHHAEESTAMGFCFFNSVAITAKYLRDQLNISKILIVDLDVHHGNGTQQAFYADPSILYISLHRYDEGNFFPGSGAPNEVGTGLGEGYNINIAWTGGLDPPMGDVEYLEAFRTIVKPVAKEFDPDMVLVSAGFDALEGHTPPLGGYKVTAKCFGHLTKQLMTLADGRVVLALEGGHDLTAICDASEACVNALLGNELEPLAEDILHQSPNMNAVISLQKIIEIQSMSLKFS
HDAC 5, sequence (Q9UQL6 whole entry): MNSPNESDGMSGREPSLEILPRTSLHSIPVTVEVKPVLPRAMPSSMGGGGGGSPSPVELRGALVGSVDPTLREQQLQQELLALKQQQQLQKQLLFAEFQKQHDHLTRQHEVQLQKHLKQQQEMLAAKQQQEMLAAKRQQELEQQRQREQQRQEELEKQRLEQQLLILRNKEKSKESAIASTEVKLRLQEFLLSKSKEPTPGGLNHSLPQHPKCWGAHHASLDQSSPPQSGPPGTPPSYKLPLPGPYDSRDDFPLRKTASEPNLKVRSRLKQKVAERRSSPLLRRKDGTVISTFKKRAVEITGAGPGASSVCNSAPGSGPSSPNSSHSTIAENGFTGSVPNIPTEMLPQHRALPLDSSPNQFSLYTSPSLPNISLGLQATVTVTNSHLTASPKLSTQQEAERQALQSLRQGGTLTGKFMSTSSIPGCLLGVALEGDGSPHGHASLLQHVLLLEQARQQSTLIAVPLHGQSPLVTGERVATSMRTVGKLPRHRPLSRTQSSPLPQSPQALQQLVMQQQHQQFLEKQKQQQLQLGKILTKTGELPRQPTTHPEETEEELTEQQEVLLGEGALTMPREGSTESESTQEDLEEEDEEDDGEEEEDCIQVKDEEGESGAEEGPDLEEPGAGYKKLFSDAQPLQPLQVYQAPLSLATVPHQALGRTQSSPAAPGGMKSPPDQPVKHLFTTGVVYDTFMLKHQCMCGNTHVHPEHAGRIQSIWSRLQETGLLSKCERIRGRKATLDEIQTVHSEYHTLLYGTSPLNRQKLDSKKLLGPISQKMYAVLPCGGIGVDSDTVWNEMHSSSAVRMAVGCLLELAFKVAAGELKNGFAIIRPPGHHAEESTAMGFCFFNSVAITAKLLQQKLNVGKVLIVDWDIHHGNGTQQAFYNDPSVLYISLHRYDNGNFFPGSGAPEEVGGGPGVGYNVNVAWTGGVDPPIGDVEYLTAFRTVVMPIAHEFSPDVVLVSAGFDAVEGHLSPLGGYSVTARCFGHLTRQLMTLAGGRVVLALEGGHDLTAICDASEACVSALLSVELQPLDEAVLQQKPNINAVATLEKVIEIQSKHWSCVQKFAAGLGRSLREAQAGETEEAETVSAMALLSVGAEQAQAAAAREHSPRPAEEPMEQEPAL
HDAC 7, sequence (Q8WUI4 whole entry): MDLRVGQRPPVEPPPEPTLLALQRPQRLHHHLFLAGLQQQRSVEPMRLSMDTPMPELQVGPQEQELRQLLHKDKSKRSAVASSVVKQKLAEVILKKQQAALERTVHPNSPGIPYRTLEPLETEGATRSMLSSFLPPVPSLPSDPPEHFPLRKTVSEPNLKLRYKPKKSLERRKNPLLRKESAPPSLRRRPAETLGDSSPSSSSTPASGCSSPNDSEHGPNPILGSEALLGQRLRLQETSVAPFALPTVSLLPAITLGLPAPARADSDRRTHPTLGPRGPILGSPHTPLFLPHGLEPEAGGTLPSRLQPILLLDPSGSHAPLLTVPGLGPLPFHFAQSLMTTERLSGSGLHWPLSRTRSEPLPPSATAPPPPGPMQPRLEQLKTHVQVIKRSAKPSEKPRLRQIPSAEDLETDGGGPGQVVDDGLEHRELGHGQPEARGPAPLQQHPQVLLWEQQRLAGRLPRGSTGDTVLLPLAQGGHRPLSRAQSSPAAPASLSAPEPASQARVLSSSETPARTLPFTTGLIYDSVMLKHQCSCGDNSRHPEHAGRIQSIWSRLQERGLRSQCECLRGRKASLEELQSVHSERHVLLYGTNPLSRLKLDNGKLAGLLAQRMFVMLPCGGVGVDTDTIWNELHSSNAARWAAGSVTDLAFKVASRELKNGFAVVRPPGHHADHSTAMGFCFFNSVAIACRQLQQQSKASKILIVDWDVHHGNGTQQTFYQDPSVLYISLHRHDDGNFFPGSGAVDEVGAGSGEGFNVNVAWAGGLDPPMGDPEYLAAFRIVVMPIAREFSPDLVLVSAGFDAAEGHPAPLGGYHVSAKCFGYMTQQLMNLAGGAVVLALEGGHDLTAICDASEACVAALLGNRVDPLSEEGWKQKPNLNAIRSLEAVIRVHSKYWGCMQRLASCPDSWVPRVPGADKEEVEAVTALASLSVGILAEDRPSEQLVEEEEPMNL
HDAC 2, sequence (Q92769 whole entry): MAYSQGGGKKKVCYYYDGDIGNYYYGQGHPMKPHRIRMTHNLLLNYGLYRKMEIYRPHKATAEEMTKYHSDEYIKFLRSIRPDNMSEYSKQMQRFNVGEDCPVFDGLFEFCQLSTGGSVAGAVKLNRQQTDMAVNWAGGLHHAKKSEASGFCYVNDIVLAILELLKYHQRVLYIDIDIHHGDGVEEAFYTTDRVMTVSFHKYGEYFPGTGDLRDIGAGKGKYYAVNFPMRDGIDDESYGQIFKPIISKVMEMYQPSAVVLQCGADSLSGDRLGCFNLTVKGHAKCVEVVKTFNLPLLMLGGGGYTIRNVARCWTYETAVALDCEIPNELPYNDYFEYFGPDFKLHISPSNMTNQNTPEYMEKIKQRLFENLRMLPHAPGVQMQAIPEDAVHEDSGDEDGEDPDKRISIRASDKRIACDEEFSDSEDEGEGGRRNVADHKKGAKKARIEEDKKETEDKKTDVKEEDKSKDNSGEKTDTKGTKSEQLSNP

CCCCCCCC(=O)SCC/C=C/[C@@H]1CC(=O)NCc2nc(cs2)C(=O)NC(C)(C)C(=O)N[C@@H](C(C)C)C(=O)O1 [OKI-005]
synergy, RAS mutated compared to RAS wild-type [1]: a superior effect greater than that of either agent alone | anti-proliferative activity, synergy [2]: synergistic anti-proliferative activity | anti-proliferative activity, synergy [3]: synergistic anti-proliferative activity | synergistic effects in MGMT-positive versus MGMT-negative cell lines [4]: synergistic effects | Loewe synergy ([5]; combined with GDC-0994, KRAS^G12D): combination synergy was observed in all cases | Loewe synergy ([5]; combined with MRTX1133, KRAS^G12D): combination synergy was observed in all cases | anti-proliferative activity, synergy [5, 32]: synergistic anti-proliferative activity | Loewe synergy ([5]; combined with binimetinib, 72 hours, KRAS^G12D): combination synergy was observed in all cases | metabolism to active compound [6]: metabolized to the same active compound, OKI-006 | Loewe synergy ([7]; combined with GDC-0994, KRAS^G12C): combination synergy was observed in all cases | anti-proliferative activity, synergy [7, 32]: synergistic anti-proliferative activity | Loewe synergy ([7]; combined with binimetinib, 72 hours, KRAS^G12C): combination synergy was observed in all cases | Loewe synergy ([7]; combined with sotorasib, KRAS^G12C): combination synergy was observed in all cases | anti-proliferative activity, synergy ([8]; 72 hours, NRAS): synergistic anti-proliferative activity | cell growth inhibition and cell death (PARP cleavage) ([8]; NRAS-mutated SKMEL2): significant cell growth inhibition and cell death

CC(C)[C@H](N)C(=O)SCC/C=C/[C@@H]1CC(=O)NCc2nc(cs2)C(=O)NC(C)(C)C(=O)N[C@@H](C(C)C)C(=O)O1.O=S(=O)(O)c1ccccc1 [OKI-179]
regressions [9]: significantly increased regressions compared to either OKI-179 or sotorasib alone | regressions [10]: significantly increased regressions compared to either OKI-179 alone or the combination of binimetinib and encorafenib | regressions ([11]; combination with binimetinib versus either single agent, following two weeks of dosing): significantly increased regressions compared to either single agent | tumor growth delay and regressions [11]: tumor growth delay, but few regressions | recommended Phase 2 dose (RP2D) ([12]; Schedule 1, oral, 4 days on and 3 days off each week): 300 mg | MTD ([12]; Schedule 1, oral, daily, 4 days on and 3 days off each week): 450 mg | MTD ([12]; Schedule 2, oral, daily, continuous dosing regimen): 200 mg | MTD ([12]; Schedule 3, oral, 5 days on and 2 days off each week): 300 mg | synergy at physiologically-relevant doses [13]: synergy associated with OKI-179 and binimetinib occurs at physiologically-relevant doses of OKI-179 | pharmacodynamic activity [14]: strong pharmacodynamic activity at tolerated doses | metabolism to active compound [6]: metabolized to the same active compound, OKI-006 | on-target PD activity, Ac-H3K9 (HDACi PD) [15]: strong on-target PD activity | regressions [16]: regressions in multiple RAS-pathway mutated models | mouse body weight loss [17]: greater weight loss than either OKI-179 alone or the combination of binimetinib and encorafenib

C/C=C1\NC(=O)[C@@H](CS)NC(=O)[C@@H](C(C)C)NC(=O)C[C@@H](/C=C/CCS)OC(=O)[C@H](C(C)C)NC1=O [Red-FK228, reference compound]
pIC50 [18]: < 6.00 | pIC50 [19]: < 6.00 | pIC50 [20]: 9.05 | pIC50 [21]: 9.00 | pIC50 [22]: < 6.00 | pIC50 [23]: < 6.00 | pIC50 [24]: 6.19 | pIC50 [25]: 6.65 | pIC50 [26]: 9.52

Cn1cnc2c(F)c(Nc3ccc(Br)cc3F)c(C(=O)NOCCO)cc21 [binimetinib, reference compound]
tumor growth delay and regressions [11]: tumor growth delay, but few regressions | on-target PD activity, pERK (MEKi PD) [27]: strong on-target PD activity

C=CC(=O)N1CCN(c2nc(=O)n(-c3c(C)ccnc3C(C)C)c3nc(-c4c(O)cccc4F)c(F)cc23)[C@@H](C)C1 [sotorasib]
effectiveness [28]: relative ineffectiveness | effectiveness [29]: relative ineffectiveness

CCCS(=O)(=O)Nc1ccc(F)c(C(=O)c2c[nH]c3ncc(-c4ccc(Cl)cc4)cc23)c1F [vemurafenib]
effectiveness [30]: relative ineffectiveness | effectiveness [31]: relative ineffectiveness
